Data as given in ChEMBL document CHEMBL1155139 (Antimicrob Agents Chemother, 2007).
≈ marks a conversion by molar mass, not a printed value.

How the values were obtained:
[1] = test system: Plasmodium falciparum; experiment: Antimalarial activity against Plasmodium falciparum NF54; format: functional, organism-based
[2] = test system: Plasmodium berghei; experiment: Antimalarial activity as reduced parasitaemia at day 3 against Plasmodium berghei infected MORO mice (Mus musculus) at 100 mg/kg peroral dose; format: functional; parameters: scale not given: the % may be the effect or the level left; conditions: route oral
[3] = test system: Plasmodium berghei; experiment: Antimalarial activity as reduced parasitaemia at day 3 against Plasmodium berghei infected MORO mice (Mus musculus) at 100 mg/kg subcutaneous dose; format: functional; parameters: scale not given: the % may be the effect or the level left
[4] = test system: Plasmodium falciparum; experiment: Antimalarial activity against Plasmodium falciparum FcB1; format: functional, organism-based; conditions: FcB1/Columbia
[5] = test system: Plasmodium falciparum; experiment: Antimalarial activity against Plasmodium falciparum K1; format: functional, organism-based

| Compound | IC50 [1] | Activity [2] | Activity [3] | IC50 [4] | IC50 [5] |
| --- | --- | --- | --- | --- | --- |
| C1CCCC2(CC1)OOC1(CCCCCC1)OO2 | 0.011 µg/mL (≈ 0.0429 µM) | 60% | 56% | 0.021 µg/mL (≈ 0.0819 µM) | 0.014 µg/mL (≈ 0.0546 µM) |
| C1CCC2(CC1)COC1(CCCCC1)OC2 | > 10 µg/mL | – | – | – | > 10 µg/mL |
| CCCCC1(CCCC)OOC(CCCC)(CCCC)OOC(CCCC)(CCCC)OO1 | > 10 µg/mL | – | – | – | > 10 µg/mL |
| CCCC1(CCC)OOC(CCC)(CCC)OO1 | 0.023 µg/mL (≈ 0.0883 µM) | 21% | 0% | 0.048 µg/mL (≈ 0.184 µM) | 0.04 µg/mL (≈ 0.154 µM) |
| CCCCC1(CCCC)OOC(CCCC)(CCCC)OO1 | 0.088 µg/mL (≈ 0.278 µM) | 47% | 5% | – | 0.071 µg/mL (≈ 0.224 µM) |
| C[C@@H]1CC[C@H]2[C@@H](C)C(=O)O[C@@H]3O[C@@]4(C)CC[C@@H]1[C@]32OO4 [ARTEMISININ] | 0.0034 µg/mL (≈ 0.012 µM) | 98% | 99.99% | – | – |
| C[C@@H]1CCCCC12OOC1(CCCC[C@@H]1C)OO2 (stereo partly drawn) [WR-148999] | – | 99.7% | 99.99% | – | – |
